The source of these data is PubChem BioAssay (NCI).

SMILES strings stand for the structures.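 These data come from cells grown in 96-well plates and exposed to compound for 48 hours at five concentrations. GI50 marks 50% less growth. TGI denotes the concentration required for complete inhibition of growth.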

Some test systems named below: U251 CNS; MALME-3M melanoma; ACHN renal; HOP-92 NSCLC; MOLT-4 leukemia; IGROV1 ovarian; A549 NSCLC; BT-549 breast; MDA-MB-231 breast.
Assay in all cases: DTP human tumour cell line panel, 48 h

For orientation: TGI means the concentration at which net growth stops. Read a low TGI as greater sensitivity of the cells. For the compound `CC(=O)NC1C(OCc2ccccc2)OC(CO)C(O)C1OCC(=O)N1CCCC1C(=O)N[C@@H](CCC(=O)NCCCCNc1c2ccccc2nc2cccc([N+](=O)[O-])c12)C(N)=O` (stereo partly specified), the TGI is 48.9 µM in the assay on U251 CNS; more than 100 µM in the assay on MALME-3M melanoma; more than 100 µM in the assay on ACHN renal; 28.7 µM in the assay on HOP-92 NSCLC; more than 100 µM in the assay with MOLT-4 leukemia; 50.6 µM in the assay on IGROV1 ovarian. Moreover, the TGI in the assay with A549 NSCLC stood at 37.8 µM; with BT-549 breast, 43.7 µM.
Regarding `Cn1c(=O)c2[nH]c(N/N=N/c3nncs3)nc2n(C)c1=O`, the concentration for total growth inhibition (TGI) with U251 CNS, in the assay on ACHN renal, with HOP-92 NSCLC, in the assay on MOLT-4 leukemia, in the assay on IGROV1 ovarian and with A549 NSCLC was more than 100 µM each time. The TGI in the assay on BT-549 breast and in the assay with MDA-MB-231 breast was more than 100 µM throughout.
Usually GI50 stands for the concentration at which growth is held to half of that of the control. `CN1CCC(CNc2cc(C3(C(=O)Nc4cc(C(=O)Nc5ccc(Cl)c(C(F)(F)F)c5)ccc4F)CC3)ncn2)CC1`: the GI50 with U251 CNS is 1.63 µM; with ACHN renal, 2.16 µM; in the assay on MOLT-4 leukemia it was 2.03 µM; in the assay on IGROV1 ovarian, 2.17 µM; with A549 NSCLC, 2.29 µM; with BT-549 breast, 3.01 µM. Moreover, the GI50 with MDA-MB-231 breast was 1.42 µM. Besides, the concentration for total growth inhibition (TGI) in the assay on U251 CNS came out at 3.62 µM; with ACHN renal it was 4.98 µM; with MOLT-4 leukemia it was 6.09 µM; with IGROV1 ovarian it was 6.19 µM; in the assay on A549 NSCLC, 5.54 µM; with BT-549 breast, 9.89 µM. This compound displayed a TGI with MDA-MB-231 breast of 2.99 µM.
As for `CC(C)(C)c1ccccc1N1C(=O)c2ccc3c4c(ccc(c24)C1=O)N(c1ccccc1C(C)(C)C)C3=O`, the TGI with U251 CNS, in the assay with ACHN renal, in the assay on HOP-92 NSCLC, in the assay on MOLT-4 leukemia, in the assay with IGROV1 ovarian and in the assay with A549 NSCLC was more than 100 µM throughout. Moreover, the TGI in the assay with BT-549 breast and in the assay with MDA-MB-231 breast was more than 100 µM in each case.
With `COc1ccc([C@H]2[C@H]3COC(=O)[C@H]3C(C#N)=C3Sc4ccccc4N32)cc1`, the TGI in the assay with U251 CNS is more than 100 µM; with MALME-3M melanoma, more than 100 µM; in the assay on ACHN renal, more than 100 µM; with HOP-92 NSCLC it was more than 100 µM; in the assay on MOLT-4 leukemia it was more than 67.7 µM; in the assay on A549 NSCLC it was more than 100 µM. Moreover, the TGI in the assay on BT-549 breast was 48.9 µM; in the assay with MDA-MB-231 breast it was more than 67.2 µM.
For `S=C1c2ccc(Cl)cc2-n2cnnc2C2CSCN12` (stereo unspecified), the TGI in the assay with U251 CNS, in the assay on MALME-3M melanoma, in the assay on ACHN renal, in the assay on MOLT-4 leukemia, in the assay on IGROV1 ovarian and in the assay on A549 NSCLC was more than 100 µM throughout. Besides, the TGI with BT-549 breast and with MDA-MB-231 breast was more than 100 µM throughout.
Take `O=C(/C=C(/C=C/c1ccc2[nH]ccc2c1)OB(F)F)/C=C/c1ccc2[nH]ccc2c1`: the GI50 was 2.62 µM in the assay on MALME-3M melanoma; 2.52 µM in the assay on ACHN renal; 2.68 µM in the assay on HOP-92 NSCLC; 2.06 µM with MOLT-4 leukemia; 3.38 µM in the assay on MDA-MB-231 breast. Further, the TGI with MALME-3M melanoma was more than 100 µM; in the assay on ACHN renal, 7.57 µM; with HOP-92 NSCLC it was more than 100 µM; with MOLT-4 leukemia, more than 100 µM; with MDA-MB-231 breast it was more than 100 µM.
Turning to `CC(=O)Nc1ccc2c(C)c3c(nc2n1)[nH]c1ccccc13`, the TGI is more than 100 µM in the assay with U251 CNS; 59.6 µM in the assay on ACHN renal; 79 µM in the assay on HOP-92 NSCLC; 53.6 µM with MOLT-4 leukemia; 71.4 µM with IGROV1 ovarian; more than 100 µM with A549 NSCLC. The TGI in the assay with BT-549 breast is 80.2 µM; with MDA-MB-231 breast, more than 100 µM.
For the compound `NC(=O)CNC(=O)[C@@H]1CC(OCCC(=O)O)CN1C(=O)C1CCCN1C(=O)OCc1ccccc1` (stereo partly specified), the TGI in the assay on U251 CNS, with MALME-3M melanoma, with ACHN renal, in the assay with MOLT-4 leukemia, in the assay with IGROV1 ovarian and in the assay with A549 NSCLC was more than 100 µM each time. Moreover, the TGI with BT-549 breast and with MDA-MB-231 breast was more than 100 µM throughout.
Consider `c1ncn(C23C4C5C6C4C2C6C53)n1` (stereo unspecified), for which the TGI with U251 CNS, in the assay with ACHN renal, in the assay with MOLT-4 leukemia, in the assay on IGROV1 ovarian, in the assay with A549 NSCLC and in the assay on MDA-MB-231 breast was more than 100 µM in each case.
For the compound `C[C@H](c1ccccc1)N1C(=O)[C@@H](O)[C@H]1[C@H](CO)OCc1ccccc1`, the TGI in the assay with U251 CNS, in the assay with MALME-3M melanoma, in the assay on ACHN renal, with HOP-92 NSCLC, in the assay with MOLT-4 leukemia and in the assay with IGROV1 ovarian was more than 100 µM in each case. The TGI in the assay on A549 NSCLC and in the assay with MDA-MB-231 breast was more than 100 µM in each case.
Turning to `Cc1ccc2c(c1)-c1nc(N)c(C#N)c(-c3ccc(Cl)cc3)c1CCS2(=O)=O`, the concentration for total growth inhibition (TGI) with U251 CNS, in the assay with MALME-3M melanoma, in the assay with ACHN renal, in the assay on HOP-92 NSCLC, in the assay with IGROV1 ovarian and in the assay on A549 NSCLC was more than 100 µM throughout. Further, the TGI in the assay on BT-549 breast and with MDA-MB-231 breast was more than 100 µM in each case.
Turning to `C=CCSC1=N/C(=C\c2ccc(Cl)cc2)C(=O)N1CC=C`, the TGI is 64.6 µM in the assay on U251 CNS; more than 100 µM with ACHN renal; 82.2 µM in the assay with HOP-92 NSCLC; more than 100 µM with IGROV1 ovarian; more than 100 µM with A549 NSCLC; 76.2 µM in the assay with BT-549 breast. The compound also showed a TGI with MDA-MB-231 breast of more than 100 µM.
As for `Cc1ccc2nc(SCC(=O)N=Nc3c(O)[nH]c4ccccc34)n(-c3ccccc3)c(=O)c2c1`, the TGI in the assay with U251 CNS turned out to be 24.8 µM; with MALME-3M melanoma, 34.7 µM; with ACHN renal it was 26.7 µM; in the assay with HOP-92 NSCLC, 29.6 µM; with MOLT-4 leukemia it was 33.2 µM; in the assay on A549 NSCLC it was 28.6 µM. Moreover, in the assay on MDA-MB-231 breast, the TGI came out at 22.8 µM.
For the compound `CCNCCNC(=O)c1ccc(I)cc1`, the TGI in the assay with U251 CNS, with ACHN renal, in the assay on HOP-92 NSCLC, in the assay on MOLT-4 leukemia, in the assay on IGROV1 ovarian and with A549 NSCLC was more than 100 µM throughout. In addition, the TGI with BT-549 breast is more than 100 µM.
As to `CCOC(=O)c1ccc(-n2[nH]nc(C(N)=O)c2=O)cc1`, the total growth inhibition concentration (TGI) in the assay on U251 CNS, in the assay with MALME-3M melanoma, in the assay with ACHN renal, in the assay on MOLT-4 leukemia, in the assay on IGROV1 ovarian and with A549 NSCLC was more than 100 µM each time. The TGI in the assay on BT-549 breast and with MDA-MB-231 breast was more than 100 µM throughout.
